Experimental data as given in the Kinase Knowledgebase extract (Sharma et al. 2016).

Target: EGFR (human) (UniProt P00533)
Sequence (P00533 whole entry, looked up): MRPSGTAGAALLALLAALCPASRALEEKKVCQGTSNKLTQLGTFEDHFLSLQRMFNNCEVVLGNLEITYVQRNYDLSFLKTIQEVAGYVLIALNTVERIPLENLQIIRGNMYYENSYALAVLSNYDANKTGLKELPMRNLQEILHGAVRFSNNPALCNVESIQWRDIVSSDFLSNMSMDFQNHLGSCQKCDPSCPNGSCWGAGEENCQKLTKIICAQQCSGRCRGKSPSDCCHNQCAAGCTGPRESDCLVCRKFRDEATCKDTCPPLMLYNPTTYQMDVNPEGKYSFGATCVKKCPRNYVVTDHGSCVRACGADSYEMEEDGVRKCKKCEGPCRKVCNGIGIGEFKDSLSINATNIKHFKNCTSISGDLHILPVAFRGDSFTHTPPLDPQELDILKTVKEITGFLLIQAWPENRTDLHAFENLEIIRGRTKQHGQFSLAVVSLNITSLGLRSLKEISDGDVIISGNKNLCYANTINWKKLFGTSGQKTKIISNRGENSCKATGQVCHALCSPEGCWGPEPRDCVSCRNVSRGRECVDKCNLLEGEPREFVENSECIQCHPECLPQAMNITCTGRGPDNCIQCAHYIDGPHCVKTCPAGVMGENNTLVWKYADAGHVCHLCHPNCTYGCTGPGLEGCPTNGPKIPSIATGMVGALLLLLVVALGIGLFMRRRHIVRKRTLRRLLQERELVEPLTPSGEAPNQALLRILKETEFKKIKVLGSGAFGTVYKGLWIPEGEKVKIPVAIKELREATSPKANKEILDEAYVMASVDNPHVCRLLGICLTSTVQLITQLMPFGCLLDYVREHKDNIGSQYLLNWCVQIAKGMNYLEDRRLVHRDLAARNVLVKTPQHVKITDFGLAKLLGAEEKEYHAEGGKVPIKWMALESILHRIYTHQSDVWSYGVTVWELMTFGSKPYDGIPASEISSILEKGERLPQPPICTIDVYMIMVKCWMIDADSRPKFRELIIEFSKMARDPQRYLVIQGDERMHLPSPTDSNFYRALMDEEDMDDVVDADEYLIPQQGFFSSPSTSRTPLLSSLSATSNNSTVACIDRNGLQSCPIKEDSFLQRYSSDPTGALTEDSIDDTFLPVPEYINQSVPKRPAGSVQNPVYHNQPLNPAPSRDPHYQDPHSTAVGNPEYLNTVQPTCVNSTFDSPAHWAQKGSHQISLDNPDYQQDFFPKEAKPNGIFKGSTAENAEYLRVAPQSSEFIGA

IC50 | Compound
100 to 1000 nM | CC(C)c1nc(-c2ccc(F)c(NS(=O)(=O)c3c(F)cccc3F)c2)c(-c2ccnc(Nc3ccnc(N4CCOCC4)c3)n2)s1
100 to 1000 nM | CS(=O)(=O)CCN1CCN(c2ccc(Nc3nccc(-c4oc(N5CCCC5)nc4-c4cccc(NS(=O)(=O)c5c(F)cccc5F)c4F)n3)cc2F)CC1
100 to 1000 nM | CC(C)c1nc(-c2ccc(F)c(NS(=O)(=O)c3ccccc3F)c2)c(-c2ccnc(Nc3ccc(N4CCN(CCS(C)(=O)=O)CC4)c(F)c3)n2)s1
100 to 1000 nM | CC(=O)N1CCN(c2ccc(Nc3nccc(-c4sc(C(C)C)nc4-c4cccc(NS(=O)(=O)C5CCCCC5)c4)n3)cn2)CC1
100 to 1000 nM | CC(C)c1nc(-c2ccc(F)c(NS(=O)(=O)c3c(F)cccc3F)c2)c(-c2ccnc(Nc3ccc(N4CCOCC4)nc3)n2)s1
100 to 1000 nM | CC(C)c1nc(-c2cc(F)cc(NS(=O)(=O)c3c(F)cccc3F)c2)c(-c2ccnc(Nc3ccc(N4CCOCC4)nc3)n2)s1
100 to 1000 nM | CC(C)c1nc(-c2cccc(NS(=O)(=O)c3c(F)cccc3F)c2)c(-c2ccnc(Nc3ccc(N4CCN5CCOC[C@H]5C4)nc3)n2)s1
100 to 1000 nM | CC(C)c1nc(-c2cccc(NS(=O)(=O)c3c(F)cccc3F)c2)c(-c2ccnc(Nc3ccc(N4CCOCC4)c(C(=O)O)c3)n2)s1
< 100 nM | CC(=O)N1CCN(c2ccc(Nc3nccc(-c4sc(C(C)C)nc4-c4cccc(NS(=O)(=O)c5ccccc5F)c4)n3)cn2)CC1
100 to 1000 nM | CC(C)c1nc(-c2cccc(NS(=O)(=O)c3c(F)cccc3F)c2)c(-c2ccnc(Nc3ccc(N4CCN(CCS(C)(=O)=O)CC4)c(F)c3)n2)s1
100 to 1000 nM | COc1ccc(S(C)(=O)=O)cc1Nc1nccc(-c2sc(C(C)C)nc2-c2cccc(NS(=O)(=O)c3c(F)cccc3F)n2)n1
100 to 1000 nM | Cc1cc(Nc2nccc(-c3sc(C(C)C)nc3-c3ccc(F)c(NS(=O)(=O)c4c(F)cccc4F)c3)n2)ccn1
100 to 1000 nM | Nc1nc(-c2cccc(NS(=O)(=O)c3c(F)cccc3F)c2)c(-c2ccnc(Nc3ccc(N4CCOCC4)nc3)n2)s1
100 to 1000 nM | CN1CCN(c2nc(-c3ccc(F)c(NS(=O)(=O)c4c(F)cccc4F)c3)c(-c3ccnc(Nc4ccc(N5CCOCC5)nc4)n3)s2)CC1
100 to 1000 nM | CCc1nc(-c2cccc(CNS(=O)(=O)c3ccccc3)c2)c(-c2ccnc(Nc3ccc(N4CCN(CCS(C)(=O)=O)CC4)c(F)c3)n2)s1
< 100 nM | COc1cc(N2CCN(CCS(C)(=O)=O)CC2)c(C)cc1Nc1nccc(-c2sc(C)nc2-c2cccc(NS(=O)(=O)c3c(F)cccc3F)c2)n1
100 to 1000 nM | CN(C)c1nc(-c2ccc(F)c(NS(=O)(=O)c3c(F)cccc3F)c2)c(-c2ccnc(Nc3ccc(N4CCN(S(C)(=O)=O)CC4)nc3)n2)s1
100 to 1000 nM | CC(C)c1nc(-c2cccc(NS(=O)(=O)c3ccccc3)c2)c(-c2ccnc(Nc3ccc(N4CCOCC4)nc3)n2)s1
100 to 1000 nM | CC(=O)N1CCN(c2ccc(Nc3nccc(-c4sc(C(C)C)nc4-c4cccc(NS(=O)(=O)c5cc(F)ccc5F)c4)n3)cn2)CC1
100 to 1000 nM | CC(C)c1nc(-c2ccc(F)c(NS(=O)(=O)c3c(F)cccc3F)c2)c(-c2ccnc(Nc3ccc(N4CCN5CCOC[C@H]5C4)nc3)n2)s1
100 to 1000 nM | O=S(=O)(Nc1cc(-c2nc(N3CCOCC3)sc2-c2ccnc(Nc3ccc4c(c3)OCCO4)n2)ccc1F)c1c(F)cccc1F

IC50 | Compound
100 to 1000 nM | CCNc1nc(-c2ccc(F)c(NS(=O)(=O)c3c(F)cccc3F)c2)c(-c2ccnc(Nc3ccc(N4CCOCC4)nc3)n2)s1
< 100 nM | COc1ccc(Nc2nccc(-c3sc(C(C)C)nc3-c3cccc(NS(=O)(=O)Cc4ccccc4)c3)n2)cc1N1CCN(CCS(C)(=O)=O)CC1
100 to 1000 nM | COc1cc(N2CCN(CCS(C)(=O)=O)CC2)c(C)cc1Nc1nccc(-c2oc(N3CCCC3)nc2-c2cccc(NS(=O)(=O)c3c(F)cccc3F)c2)n1
100 to 1000 nM | COc1cc(N2CCN(CCS(C)(=O)=O)CC2)c(C)cc1Nc1nccc(-c2sc(C(C)C)nc2-c2cc(NS(=O)(=O)c3c(F)cccc3F)ccc2F)n1
< 100 nM | COc1ccc(Nc2nccc(-c3sc(C(C)C)nc3-c3cccc(NS(=O)(=O)c4ccccc4)c3)n2)cc1N1CCN(CCC#N)CC1
100 to 1000 nM | Cc1ccc(-c2nc(C(C)C)sc2-c2ccnc(Nc3ccc(N4CCOCC4)nc3)n2)cc1NS(=O)(=O)c1c(F)cccc1F
100 to 1000 nM | COc1cc(N2CCN(CCS(C)(=O)=O)CC2)c(C)cc1Nc1nccc(-c2sc(C(C)C)nc2-c2cccc(NS(=O)(=O)c3cccnc3)c2)n1
< 100 nM | COc1cc(N2CCN(CCS(C)(=O)=O)CC2)c(C)cc1Nc1nccc(-c2sc(N3CCOCC3)nc2-c2cccc(NS(=O)(=O)c3c(F)cccc3F)c2)n1
< 100 nM | COc1cc(OC2CCN(CCS(C)(=O)=O)CC2)c(C)cc1Nc1nccc(-c2sc(C(C)C)nc2-c2cccc(NS(=O)(=O)c3c(F)cccc3F)c2)n1
100 to 1000 nM | CCNc1nc(-c2cccc(NS(=O)(=O)c3c(F)cccc3F)c2)c(-c2ccnc(Nc3ccc(N4CCOCC4)nc3)n2)s1
100 to 1000 nM | CC(C)c1nc(-c2cccc(NS(=O)(=O)c3c(F)cccc3F)c2)c(-c2ccnc(Nc3ccc(N4CCCN(CCS(C)(=O)=O)CC4)nc3)n2)s1
< 100 nM | COc1cc(N2CCN(CCS(C)(=O)=O)CC2)c(C)cc1Nc1nccc(-c2sc(C(C)C)nc2-c2cccc(NS(=O)(=O)c3c(F)cccc3F)c2)n1
< 100 nM | CC(C)c1nc(-c2cccc(NS(=O)(=O)c3c(F)cccc3F)c2)c(-c2ccnc(Nc3ccc(N4CCCNCC4)nc3)n2)s1
100 to 1000 nM | O=S1(=O)Cc2ccc(Nc3nccc(-c4sc(N5CCOCC5)nc4-c4cccc(NS(=O)(=O)c5c(F)cccc5F)c4F)n3)cc2C1
100 to 1000 nM | CCc1nc(-c2cccc(NS(=O)(=O)c3ccccc3)c2)c(-c2ccnc(Nc3ccc(OC)c(N4CCN(CCS(C)(=O)=O)CC4)c3)n2)s1
100 to 1000 nM | CC(C)c1nc(-c2ccc(F)c(NS(=O)(=O)c3ccccc3C#N)c2)c(-c2ccnc(Nc3ccc(N4CCOCC4)nc3)n2)s1
< 100 nM | Cc1cc(N2CCC(N3CCCCC3)CC2)ccc1Nc1nccc(-c2sc(C(C)C)nc2-c2cccc(NS(=O)(=O)c3c(F)cccc3F)c2)n1
100 to 1000 nM | O=S(=O)(Nc1cccc(-c2nc(N3CCOCC3)sc2-c2ccnc(Nc3ccc(N4CCOCC4)nc3)n2)c1F)c1c(F)cccc1F
< 100 nM | CCNc1nc(-c2cccc(NS(=O)(=O)c3ccccc3)c2)c(-c2ccnc(Nc3ccc(OCCN4CCCC4)c(F)c3)n2)s1
100 to 1000 nM | COc1cc(N2CCN(CCS(C)(=O)=O)CC2)c(C)cc1Nc1nccc(-c2sc(C3CC3)nc2-c2cccc(NS(=O)(=O)c3c(F)cccc3F)c2)n1
< 100 nM | COc1cc(N2CCN(CCS(C)(=O)=O)CC2)c(C)cc1Nc1nccc(-c2scnc2-c2cccc(NS(=O)(=O)c3c(F)cccc3F)c2)n1

IC50 | Compound
< 100 nM | COc1cc(Nc2nccc(-c3sc(C(C)C)nc3-c3cccc(NS(=O)(=O)c4c(F)cccc4F)c3)n2)cc(OC)c1OC1CCN(CCS(C)(=O)=O)CC1
100 to 1000 nM | COc1cc(N2CCC3(CC2)CCN(S(C)(=O)=O)CC3)c(C)cc1Nc1nccc(-c2sc(C(C)C)nc2-c2cccc(NS(=O)(=O)c3c(F)cccc3F)c2F)n1
< 100 nM | COc1cc(N2CCN(CCS(C)(=O)=O)CC2)c(C)cc1Nc1nccc(-c2sc(C(C)C)nc2-c2cccc(NS(=O)(=O)c3c(F)cccc3F)n2)n1
100 to 1000 nM | CC(C)c1nc(-c2cccc(NS(=O)(=O)c3c(F)cccc3F)c2)c(-c2ccnc(Nc3ccc(OC4CCN(CCS(C)(=O)=O)CC4)c(F)c3)n2)s1
< 100 nM | CCOc1ccc(Nc2nccc(-c3sc(N4CCCC4)nc3-c3cccc(NS(=O)(=O)c4c(F)cccc4F)c3)n2)cc1N1CCN(CCS(C)(=O)=O)CC1
< 100 nM | CCNc1nc(-c2cccc(NS(=O)(=O)c3c(F)cccc3F)c2)c(-c2ccnc(Nc3cc(C)c(N4CCN(CCS(C)(=O)=O)CC4)cc3OC)n2)s1
100 to 1000 nM | CN1CCC(c2nc(-c3ccc(F)c(NS(=O)(=O)c4c(F)cccc4F)c3)c(-c3ccnc(Nc4ccc(N5CCOCC5)nc4)n3)s2)CC1
< 100 nM | COc1cc(N2CCN(CCS(C)(=O)=O)CC2)c(C)cc1Nc1nccc(-c2sc(CC(C)C)nc2-c2cccc(NS(=O)(=O)c3c(F)cccc3F)c2)n1
100 to 1000 nM | CC(C)c1nc(-c2cccc(NS(=O)(=O)c3c(F)cccc3F)c2)c(-c2ccnc(Nc3ccc(N4CCN(CCF)CC4)c(F)c3)n2)s1
< 100 nM | COc1cc(N2CCN(CCS(C)(=O)=O)CC2)c(C)cc1Nc1nccc(-c2sc(C(C)C)nc2-c2cccc(NS(=O)(=O)c3cccs3)c2)n1
100 to 1000 nM | COc1cc(N2CCN(CCS(C)(=O)=O)CC2)c(C)cc1Nc1nccc(-c2sc(N)nc2-c2cccc(NS(=O)(=O)c3c(F)cccc3F)c2)n1
100 to 1000 nM | CC(C)c1nc(-c2cccc(NS(=O)(=O)c3ccccc3)c2)c(-c2ccnc(Nc3ccc(F)c(N4CCN(CCS(C)(=O)=O)CC4)c3)n2)s1
< 100 nM | COc1cc(N2CCN(CCS(C)(=O)=O)CC2)c(C)cc1Nc1nccc(-c2sc(C(C)C)nc2-c2cccc(NS(=O)(=O)c3ccco3)c2)n1
100 to 1000 nM | O=S(=O)(Nc1cc(-c2nc(N3CCCC3)sc2-c2ccnc(Nc3ccc(N4CCOCC4)nc3)n2)ccc1F)c1c(F)cccc1F
< 100 nM | CC(C)c1nc(-c2cccc(NS(=O)(=O)c3c(F)cccc3F)c2)c(-c2ccnc(Nc3cccc(N4CCN(C)CC4)c3)n2)s1
< 100 nM | COc1cc(N2CCC(N3CCN(CCS(C)(=O)=O)CC3)CC2)ccc1Nc1nccc(-c2sc(C(C)C)nc2-c2cccc(NS(=O)(=O)c3c(F)cccc3F)c2)n1
100 to 1000 nM | CC(C)c1nc(-c2cccc(NS(=O)(=O)c3c(F)cccc3F)c2)c(-c2ccnc(Nc3ccc(N4CCOCC4)nc3)n2)s1
< 100 nM | COc1cc(N2CCN(CCS(C)(=O)=O)CC2)c(C)cc1Nc1nccc(-c2sc(C3CCOCC3)nc2-c2cccc(NS(=O)(=O)c3c(F)cccc3F)c2)n1
< 100 nM | CC(=O)N1CCN(c2ccc(Nc3nccc(-c4sc(C(C)C)nc4-c4cccc(NS(=O)(=O)c5cn(C)cn5)c4)n3)cn2)CC1
< 100 nM | CC(C)c1nc(-c2cccc(NS(=O)(=O)c3c(F)cccc3F)c2)c(-c2ccnc(Nc3ccc(N4CCN(CCO)CC4)nc3)n2)s1
100 to 1000 nM | CC(C)c1nc(-c2cccc(NS(=O)(=O)c3ccccc3)c2)c(-c2ccnc(Nc3ccc(CC4CCN(CCS(C)(=O)=O)CC4)c(F)c3)n2)s1

Compound | IC50
CC(C)c1nc(-c2ccc(F)c(NS(=O)(=O)c3c(F)cccc3F)c2)c(-c2ccnc(Nc3ccc(N4CCN(CCF)CC4)c(F)c3)n2)s1 | 100 to 1000 nM
COc1cc(N2CCN(CCF)CC2)ccc1Nc1nccc(-c2sc(C(C)C)nc2-c2cccc(NS(=O)(=O)c3c(F)cccc3F)c2)n1 | 100 to 1000 nM
